According to patent publication US11986512B2, “Compositions and methods for cancer therapy” (Thetis Pharmaceuticals LLC, priority 2021, dated 2024):

Test system: Panc2-H7 model
Assay: Panc2-H7 model with or without CD8 neutralizing antibody
Format: in vivo, C57BL/6J male mice
Method: Based on the findings with bis RvE1 Mg-di-lysinate administered in combination with anti-PD1 in two different tumor models (i.e., Panc2-H7 and LLC), daily (QD) and weekly (Q7D) dosing of bis RvE1 Mg-di-lysinate was investigated in the Panc2-H7 model, with and without an antibody that depletes CD8+ T-cells, which play a major role in the antitumor immune response of immune checkpoint inhibitors. A total of thirty (30) C57BL/6J male mice were injected subcutaneously with 1×10e6 living […]. Once tumors reached 220-240 mm^3 in size based on mean tumor volume per cohort, the mice were randomized (n=6 per group) to treatment with vehicle, bis RvE1 Mg-di-lysinate (300 ug/kg, SC, QD or Q7D), with or without CD8 neutralizing antibody (200 ug IP Q3D). All mice were sacrificed on day 20 when the average tumor size of the placebo group exceeded 2,000 mm^3.

## CC[C@@H](O)/C=C/C=C\C[C@@H](O)/C=C/C=C/C=C\[C@@H](O)CCCC(=O)O [bis RvE1 Mg-di-lysinate]
300 ug/kg SC, mice not receiving the neutralizing antibody
  efficacy of weekly (Q7D) relative to daily (QD) dosing: comparable and possibly superior efficacy relative to daily (QD) dosing
300 ug/kg, SC, Q7D, without CD8 neutralizing antibody, p<0.01 vs placebo and vs same regimen + CD8 depletion
  tumor volume over time: significant inhibition compared to placebo control
